Structures can show the parent of a compound that is named as a salt. Where two headings read alike, the source gives them in different places.
Assays:
Format in all cases: cell-based
Candida albicans SRI 523 = test: agar disc diffusion assay, C. albicans; conditions: SRI523, 240 ug/disc, about 24 hr at 37° C., Mueller-Hinton agar, read-out: Diameter of the zone of inhibition, C. albicans
Method: (§1) The activity of the compounds is determined using the following assay. The compound is dissolved in DMSO at a concentration of 6 mg/ml and then diluted with water to a final concentration of 3 mg/ml in 50% DMSO (% DMSO was shown not to be inhibitory to the test organisms). An aliquot (0.08 ml) of each drug solution was transferred to filter paper discs (12.7 mm diameter, Scmeicherand Schuell) for use in the agar diffusion assay. The concentration of each drug on the filter paper disc was 240 ug/disc. The test organisms included the following: Gram-positive aerobes (Staphylococcus aureus SRI 1323, Streptococcus pneumoniae SRI 1167); Gram-negative aerobe (Proteus vulgaris SRI 180); and the yeast Candida albicans SRI 523. An agar disc diffusion assay was used to evaluate the antimicrobial activity of the test compounds. Briefly, cultures were prepared from 16-20 hr agar slant cultures by inoculating in physiological saline to a turbidity equivalent to a #0.5 McFarland turbidity standard for the bacteria and a #3 McFarland standard for C. albicans. The surface of Mueller-Hinton agar (15×100 mm plates, mm) were evenly inoculated with each standardized culture using a cotton swab. Filter paper discs containing the drug concentration listed above were then placed on the inoculated agar plates along with a disc containing the solvent used to dissolve each drug. The plates were incubated at 37° C. for about 24 hr and the diameters of the zones of inhibition measured with a vernier caliper. Positive control drugs consisted of streptomycin for use with the bacterial strains and 5-fluorocytosine for use with C. albicans. The positive control drugs were assayed as described above for the compounds of the present invention using the same concentration.

Proteus vulgaris SRI 180 = test: agar disc diffusion assay, P. vulgaris; conditions: SRI180, 240 ug/disc, about 24 hr at 37° C., Mueller-Hinton agar, read-out: Diameter of the zone of inhibition, P. vulgaris
Method: as §1

[1] = system: Staphylococcus aureus SRI 1323; test: agar disc diffusion assay, S. aureus; conditions: SRI1323, 240 ug/disc, about 24 hr at 37° C., Mueller-Hinton agar, read-out: Diameter of the zone of inhibition, S. aureus
Method: as §1

[2] = system: microtubule cytoskeleton of cultured human CG neuroblastoma cells; test: Antimicrotubule activity (tubulin immunofluorescence microscopy); conditions: Neuroblastoma cell, read-out: Concentration where microtubule destabilization occurs
Method: The compounds of the invention according to formula I are effective in destabilizing microtubules, thus are useful in treating certain neoplastic diseases. Indirect immunofluorescence microscopy using the monoclonal antibodies to tubulin is used herein to determine the activity of the compounds of this invention in promoting depolymerization of the microtubule cytoskeleton in cultured cells. The following assay was employed.
Cultured human CG neuroblastoma cells were seeded 1:3 from confluent cultures onto sterile 11×22 mm coverslips in 6 well tissue culture plates 16 hr prior to treatment. The following day, the tissue culture medium is removed and the cells are exposed to various concentrations of compounds of this invention in Krebs Ringer Hepes (KRH) buffer containing a final concentration of 0.5% DMSO as carrier. Incubations were performed at 37° C. in a humidified 5% CO2 atmosphere for 2 hr. After incubation, the cells were fixed in 3% TEM grade formaldehyde in PBS for 45 min at room temperature.
To visualize the effects of the compounds of the invention on the microtubule cytoskeleton, the cells were processed for tubulin immunofluorescence. Briefly, the cells were permeabilized in 0.5% Triton-X 100 in PBS for 5 min. The cells were washed 2× with PBS and aldehydes reduced using 0.5 mg/ml NaBH4 in PBS for 5 min. Subsequently, the cells were blocked for 10 min in 1.5% BSA and 1.5% nonfat dry milk in PBS (blocking solution, BS) for 10 min. The cells were then incubated for 30 min at 37° C. with the monoclonal antibody Tu27B which recognizes b-tubulin (dilution 1:20 in BS). Subsequently, the cells were washed 2× in PBS and once in BS. The cells were then incubated for 30 min at 37° C. with sheep antimouse IgG conjugated to FITC. After incubation, the cells were washed 2× in PBS and once in BS and incubated. for 30 min at 37° C. with rabbit antisheep IgG conjugated to FITC. The cells were rinsed in PBS, counterstained with Hoechst 33285 in PBS (1 μg/ml), and rinsed in PBS. The coverslips were mounted in 9:1 glycerol:PBS containing 1 mg/ml p-phenylenediamine and sealed with nail polish.
The cells were viewed using a Jenalumar epifluorescence microscope equipped with the proper filters for Fluorescein Isothiocyanate (FITC) excitation and emission. Lack of effect of a compound is evidenced by the presence of an intact microtubule network in interphase cells, or a mitotic spindle dividing cells. Antineoplastic compounds of the invention at effective doses result in the disapperance of microtubules in both interphase and mitotic cells.

[3] = system: Streptococcus pneumoniae SRI 1167; test: agar disc diffusion assay, S. pneumoniae; conditions: 240 ug/disc, about 24 hr at 37° C.; for zone of inhibition at 240 µg/disc: Streptococcus pneumoniae, SRI1167, Mueller-Hinton agar, read-out: Diameter of the zone of inhibition, S. pneumoniae
Method: as §1

[4] = 2 hr at 37° C., 0.5% DMSO in KRH

For `O=C(CCN1CCN(Cc2ccccc2)CC1)c1ccc([N+](=O)[O-])cc1` [Example 5, 1-(p-Nitrophenyl)-3-(4'-benzyl-1'-piperazinyl)-1-propanone dihydrochloride], the zone of inhibition at 240 µg/disc (Candida albicans SRI 523) was 17.6 mm, the zone of inhibition at 240 µg/disc (Proteus vulgaris SRI 180) was 17.3 mm and the zone of inhibition at 240 µg/disc [1] was 22.8 mm. For the same compound, the minimal effective concentration [2, 4] was 4 µM and the zone of inhibition at 240 µg/disc [3] was 29.9 mm.

`O=C(CCN1CCN(Cc2ccccc2)CC1)c1cccs1` [Example 7, 1-(2"-Thienyl)-3-(4'-benzyl-1'-piperazinyl)-1-propanone dihydrochloride] showed a minimal effective concentration [2, 4] of 20 µM.

For `O=C(CCN1CCN(Cc2ccccc2)CC1)c1ccc(F)c2ccccc12` [Example 21, 1-(4"-Fluoronaphth-1"-yl)-3-(4'-benzyl-1'-piperazinyl)-1-propanone dihydrochloride], the zone of inhibition at 240 µg/disc (Candida albicans SRI 523) was 26.6 mm, the zone of inhibition at 240 µg/disc (Proteus vulgaris SRI 180) was 0 mm and the zone of inhibition at 240 µg/disc [1] was 33.8 mm. It also gave a minimal effective concentration [2, 4] of 20 µM and a zone of inhibition at 240 µg/disc [3] of 40.7 mm.

Work on `O=C(CCN1CCN(Cc2ccccc2)CC1)c1ccc(F)c(Br)c1` [Example 25, 1-(p-Fluoro-m-bromophenyl)-3-(4'-benzyl-1'-piperazinyl)-1-propanone dihydrochloride] yielded a zone of inhibition at 240 µg/disc (Candida albicans SRI 523) of 26 mm, a zone of inhibition at 240 µg/disc (Proteus vulgaris SRI 180) of 16 mm and a zone of inhibition at 240 µg/disc [1] of 27.5 mm. It also gave a zone of inhibition at 240 µg/disc [3] of 36.3 mm.

Work on `O=C(CCN1CCN(Cc2ccccc2)CC1)c1ccc(C2CCCCC2)cc1` [Example 27, 1-(p-Cyclohexylphenyl)-3-(4'-benzyl-1'-piperazinyl)-1-propanone dihydrochloride] yielded a minimal effective concentration [2, 4] of 20 µM.

`O=C(CCN1CCN(Cc2cc(F)ccc2F)CC1)c1ccsc1` [Example 38, 1-(3"-Thienyl)-3-[4'-(2'",5'"-difluorobenzyl)-1'-piperazinyl]-1-propanone dihydrochloride] showed a minimal effective concentration [2, 4] of 20 µM.

`O=C(CCN1CCN(C(=O)c2c(F)cccc2F)CC1)c1ccccc1F` [Example 41, 1-(o-Fluorophenyl)-3-[4'-(2",6"-difluorobenzoyl)-1'-piperazinyl]-1-propanone hydrochloride] gave a minimal effective concentration [2, 4] of 20 µM.

Compound `O=C(CCN1CCN(C(=O)c2ccccc2C(F)(F)F)CC1)c1ccccc1F` [Example 43, 1-(o-Fluorophenyl)-3-[4'-(o-trfuoromethylbenzoyl)-1'-piperazinyl]-1-propanone hydrochloride] has a zone of inhibition at 240 µg/disc (Candida albicans SRI 523) of 22.5 mm, a zone of inhibition at 240 µg/disc (Proteus vulgaris SRI 180) of 15.9 mm and a zone of inhibition at 240 µg/disc [1] of 17.7 mm. It also gave a zone of inhibition at 240 µg/disc [3] of 25.3 mm.

`N#Cc1cccc(C(=O)CCN2CCN(Cc3ccccc3)CC2)c1` [Example 60, 1-(m-Cyanophenyl)-3-(4'-benzyl-1'-piperazinyl)-1-propanone dihydrochloride] showed a minimal effective concentration [2, 4] of 20 µM.

`O=C(CCN1CCN(C(c2ccccc2)c2ccc(Cl)cc2)CC1)c1ccc(Br)s1` (centres unmarked) [Example 78, 1-(5"-Bromo-2"-thienyl)-3-[4'-(1'"-p-chlorophenyl-1'"-phenylmethyl)-1'-piperazinyl]-1-propanone dihydrochloride] gave a zone of inhibition at 240 µg/disc (Candida albicans SRI 523) of 15.2 mm, a zone of inhibition at 240 µg/disc (Proteus vulgaris SRI 180) of 14.5 mm and a zone of inhibition at 240 µg/disc [1] of 16.2 mm. The zone of inhibition at 240 µg/disc [3] was 19.7 mm.

`O=C(CCN1CCN(Cc2ccccc2)CC1)c1csc([N+](=O)[O-])c1` [Example 80, 1-(5"-Nitro-3"-thienyl)-3-(4'-benzyl-1'-piperazinyl)-1-propanone dihydrochloride] was tested, and the zone of inhibition at 240 µg/disc (Candida albicans SRI 523) was 14.5 mm, the zone of inhibition at 240 µg/disc (Proteus vulgaris SRI 180) was 13.8 mm and the zone of inhibition at 240 µg/disc [1] was 17.2 mm. The “Diameter of the zone of inhibition, S. pneumoniae (symbol)” value ([3]; zone too large to measure) was “+”.

`N#Cc1ccc(C(=O)CCN2CCN(Cc3ccccc3)CC2)s1` [Example 85, 1-(5"-Cyano-2"-thienyl)-3-(4'-benzyl-1'-piperazinyl)-1-propanone dihydrochloride] was tested, and the minimal effective concentration [2, 4] was 20 µM.

Work on `O=C(CCN1CCN(Cc2ccccc2)CC1)c1cc([N+](=O)[O-])c(Cl)s1` [Example 95, 1-(5"-Chloro-4"-nitro-2"-thienyl)-3-(4'-benzyl-1'-piperazinyl)-1-propanone dihydrochloride] yielded a minimal effective concentration [2, 4] of 20 µM.

Compound `O=C(CCN1CCN(Cc2ccccc2)CC1)c1conc1-c1ccccc1` [Example 112, 1-(3"-Phenylisoxazol-4"-yl)-3-(4'-benzyl-1'-piperazinyl)-1-propanone dihydrochloride] has a minimal effective concentration [2, 4] of 20 µM.

`O=C(CCN1CCN(Cc2ccccc2)CC1)c1ccc(Nc2ccc([N+](=O)[O-])cc2[N+](=O)[O-])cc1` [Example 113, 1-(4"-[2'",4'"-Dinitrophenylamino]phenyl)-3-(4'-benzyl-1'-piperazinyl)-1-propanone dihydrochloride] showed a minimal effective concentration ([2]; 2 h) of 20 µM.

Source: US6306857A, “Methods for treating or preventing alzheimer's disease using substituted 1-aryl-3-piperazin-1'-yl propanones” (Molecular Geriatrics Corporation, priority 1999, dated 2001)
